The text below walks through data of ChEMBL document CHEMBL1201862, “PubChem BioAssay data set” (2004).

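96-well plates; 48 h exposure; 5 concentrations. Endpoints by linear interpolation between flanking doses. Not reached: highest tested concentration assigned. GI50 marks 50% less growth.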 Active and inactive are the calls of the source. No stated cut-off is given here; in the data, active = GI50 up to about 1.1 µM and inactive = higher. Some results are limits rather than exact numbers.

Test systems include CCRF-CEM; COLO 205; EKVX; Hs-578T; KM12; MCF7; MDA-N; NCI-H522; NCI/ADR-RES; OVCAR-3; OVCAR-5; PC-3; SF-268; SF-295; SNB-19; SNB-75; U-251; MDA-MB-435.
What all share (assay): growth of human tumour cells (NCI), 48 h

In the case of `O/N=N/c1ccc([SH2]c2ccc3ccccc3c2)cn1`, the GI50 in the test on CCRF-CEM is 3.04 µM (inactive); in the test on COLO 205 it was 20.2 µM (inactive); in the test with EKVX, 23.6 µM (inactive); with Hs-578T, 43 µM (inactive); in the test with KM12 it was 41.4 µM (inactive); in the test on MCF7 it was 17.9 µM (inactive). Besides, the GI50 with MDA-N is 31.4 µM (inactive); with NCI-H522, 17.5 µM (inactive); with NCI/ADR-RES it was 19.1 µM (inactive); with OVCAR-3 it was 43.8 µM (inactive); with OVCAR-5, 32.7 µM (inactive); with PC-3, 8.85 µM (inactive). Also, the GI50 was 22.3 µM (inactive) with SF-268; 25.8 µM (inactive) in the test with SF-295; 40.2 µM (inactive) in the test on SNB-19; 20.2 µM (inactive) with SNB-75; 19.3 µM (inactive) with U-251.
As to `Cc1cc2c(cc1O)CC[C@@H]1[C@@H]2CC[C@]2(C)[C@@H](O)CC[C@@H]12`, the GI50 was 4.32 µM (inactive) with CCRF-CEM; 17.6 µM (inactive) in the test on COLO 205; 2.51 µM (inactive) in the test with Hs-578T; 4.52 µM (inactive) with KM12; 8.85 µM (inactive) in the test with MCF7; 1.9 µM (inactive) in the test with MDA-N. Besides, the GI50 in the test on NCI-H522 was 7.45 µM (inactive); with NCI/ADR-RES it was 5.77 µM (inactive); in the test with OVCAR-5 it was 21.2 µM (inactive); in the test on PC-3 it was 11.1 µM (inactive); in the test with SF-268 it was 15.5 µM (inactive); with SF-295, 6.08 µM (inactive). The GI50 in the test on SNB-19 was 12.6 µM (inactive); in the test with SNB-75 it was 5.43 µM (inactive); in the test with U-251, 5.73 µM (inactive).
As to `O=C(Cn1ccnc1[N+](=O)[O-])NCCO` [ETANIDAZOLE], the GI50 in the test with CCRF-CEM, with COLO 205, in the test with EKVX, in the test with Hs-578T, in the test with KM12 and in the test on MCF7 was > 100 µM (inactive) throughout. Also, the GI50 in the test with MDA-MB-435, in the test with NCI-H522, with NCI/ADR-RES, in the test on OVCAR-3, with OVCAR-5 and in the test with PC-3 was > 100 µM (inactive) each time. The GI50 in the test with SF-268, with SF-295, in the test with SNB-19, in the test with SNB-75 and in the test on U-251 was > 100 µM (inactive) in each case.
For the compound `COc1ccc(OC)c2c1ccc1c(C)c3ccccc3c(C)c12`, the GI50 was > 100 µM (inactive) with CCRF-CEM; 20.9 µM (inactive) in the test with MCF7; > 100 µM (inactive) in the test with MDA-MB-435; 79.1 µM (inactive) in the test on MDA-N; 75.9 µM (inactive) with NCI-H522; 95.3 µM (inactive) in the test on OVCAR-3. For the same compound, the GI50 in the test on OVCAR-5, with PC-3, in the test with SF-268, in the test with SNB-19, in the test with SNB-75 and in the test with U-251 was > 100 µM (inactive) each time.
As to `O=[N+]([O-])c1ccc2nc(=S)[nH]n2c1`, the GI50 in the test with CCRF-CEM, in the test with COLO 205, with EKVX, with Hs-578T, in the test with KM12 and in the test with MCF7 was > 100 µM (inactive) each time. In addition, the GI50 in the test with MDA-MB-435, in the test on NCI-H522, in the test with NCI/ADR-RES, with OVCAR-5, in the test with SF-268 and with SF-295 was > 100 µM (inactive) each time. In addition, the GI50 in the test on SNB-19, in the test with SNB-75 and in the test with U-251 was > 100 µM (inactive) in each case.
As to `COc1cc2c(cc1OCCCCCOc1cc3c(cc1OC)C(=O)N1CCC[C@H]1CN3)N=C[C@@H]1CCCN1C2=O`, the GI50 was 0.233 µM (active) with CCRF-CEM; 4.37 µM (inactive) in the test on COLO 205; 39.6 µM (inactive) with EKVX; 6.75 µM (inactive) with Hs-578T; 2.92 µM (inactive) in the test on KM12; 15.8 µM (inactive) in the test on MCF7. The GI50 was 6.85 µM (inactive) in the test with MDA-MB-435; 1.36 µM (inactive) with NCI-H522; 23.4 µM (inactive) with NCI/ADR-RES; 12.6 µM (inactive) in the test on OVCAR-3; 16.9 µM (inactive) in the test with OVCAR-5; 10.1 µM (inactive) with PC-3. For the same compound, the GI50 was 3.57 µM (inactive) in the test on SF-268; 6.14 µM (inactive) with SF-295; 20 µM (inactive) in the test on SNB-19; 15 µM (inactive) in the test with SNB-75; 1.49 µM (inactive) in the test on U-251.
Consider `c1ccc2c3nnc(c2c1)SCCCSc1nnc(c2ccccc12)SCCCS3`, for which the GI50 in the test on CCRF-CEM, with COLO 205, in the test on EKVX, with KM12, in the test with MCF7 and in the test with MDA-MB-435 was > 100 µM (inactive) in each case. Besides, the GI50 is > 100 µM (inactive) in the test on MDA-N; 42.5 µM (inactive) with NCI-H522; 33.4 µM (inactive) with NCI/ADR-RES; 25.8 µM (inactive) in the test on OVCAR-3; > 100 µM (inactive) in the test on OVCAR-5; 97.7 µM (inactive) with PC-3. The GI50 was 18.9 µM (inactive) in the test with SF-268; 92.3 µM (inactive) with SF-295; 28.8 µM (inactive) in the test on SNB-19; 25.2 µM (inactive) in the test on SNB-75; 76 µM (inactive) in the test with U-251.
With `C/C(=N/O)C1CC=C(S(=O)(=O)c2ccccc2)C1` (configuration not stated), the GI50 with CCRF-CEM, in the test on COLO 205, in the test on KM12, in the test with NCI-H522, in the test with OVCAR-3 and in the test on OVCAR-5 was > 100 µM (inactive) throughout. Further, the GI50 in the test with SF-268, in the test with SF-295, in the test with SNB-19, in the test on SNB-75 and in the test on U-251 was > 100 µM (inactive) in each case.
Regarding `CC1(C)O[C@@H]2[C@@H](COC(C)(C)O[C@H]2C2SCCCS2)O1`, the GI50 in the test with COLO 205, in the test with KM12, in the test on MCF7, in the test on MDA-MB-435, with MDA-N and with NCI-H522 was > 100 µM (inactive) throughout. Besides, the GI50 in the test with NCI/ADR-RES, in the test on OVCAR-3, in the test with OVCAR-5, in the test on PC-3, in the test with SF-268 and in the test on SF-295 was > 100 µM (inactive) each time. The GI50 with SNB-19 and with U-251 was > 100 µM (inactive) in each case.
Consider `CNc1ncc(-c2nnnn2-c2ccccc2)c(CN(C)C)n1`, for which the GI50 in the test on CCRF-CEM, in the test with COLO 205, in the test with EKVX, in the test on Hs-578T, in the test with KM12 and in the test on MCF7 was > 100 µM (inactive) throughout. Further, the GI50 in the test on MDA-MB-435, with NCI-H522, with NCI/ADR-RES, in the test on OVCAR-3, with OVCAR-5 and with PC-3 was > 100 µM (inactive) each time. Moreover, the GI50 in the test on SF-268, in the test on SF-295, in the test on SNB-19, in the test on SNB-75 and in the test with U-251 was > 100 µM (inactive) in each case.
Consider `CCOC(=O)/C(=C\NC[C@@H](C)O)c1nc2ccccc2[nH]1`, for which the GI50 in the test with COLO 205 was 69.5 µM (inactive); with EKVX it was > 100 µM (inactive); in the test with KM12 it was 57.4 µM (inactive); in the test on MCF7, 60.8 µM (inactive); in the test on MDA-MB-435, > 100 µM (inactive); in the test with MDA-N it was > 100 µM (inactive). The GI50 with NCI-H522 is 40.3 µM (inactive); with NCI/ADR-RES, 44.3 µM (inactive); in the test on OVCAR-3 it was 98.4 µM (inactive); in the test with OVCAR-5, > 100 µM (inactive); with SF-268, 60.7 µM (inactive); with SF-295 it was 61.1 µM (inactive). Further, the GI50 in the test with SNB-19 and in the test on SNB-75 was > 100 µM (inactive) throughout.
In the case of `S=C(Nc1ccccc1)N(Cc1ccccc1)c1ccccc1`, the GI50 in the test with CCRF-CEM was 28.4 µM (inactive); in the test on COLO 205 it was 23.3 µM (inactive); in the test with EKVX it was 17.5 µM (inactive); in the test with Hs-578T, 20 µM (inactive); in the test on KM12 it was 21.2 µM (inactive); in the test on MCF7, 33.7 µM (inactive). The GI50 is 20.3 µM (inactive) in the test with MDA-MB-435; 21 µM (inactive) with NCI-H522; > 100 µM (inactive) in the test on NCI/ADR-RES; 30.2 µM (inactive) in the test with OVCAR-3; > 100 µM (inactive) with OVCAR-5; 34.8 µM (inactive) in the test with SF-268. Also, the GI50 in the test with SF-295 is 34.3 µM (inactive); in the test on SNB-19, 80.2 µM (inactive); with SNB-75, 22.5 µM (inactive); with U-251, 42.6 µM (inactive).
On to `Cc1nnc2c3c(-c4ccccc4)c(-c4ccccc4)oc3nc(N(C)C)n12`, for which the GI50 with CCRF-CEM is 29.6 µM (inactive); with COLO 205 it was 64.4 µM (inactive); in the test with EKVX, > 100 µM (inactive); in the test with Hs-578T it was 21.3 µM (inactive); in the test with KM12, 26.7 µM (inactive); with MCF7, 33.3 µM (inactive). Also, the GI50 in the test with MDA-MB-435 is 36.5 µM (inactive); in the test on NCI-H522 it was 97.9 µM (inactive); in the test with NCI/ADR-RES, > 100 µM (inactive); in the test with OVCAR-5, 51.5 µM (inactive); in the test on SF-268, 39.5 µM (inactive); in the test on SF-295 it was 37.6 µM (inactive). The GI50 with SNB-19 was > 100 µM (inactive); in the test on SNB-75, 15.5 µM (inactive); in the test on U-251, 51.2 µM (inactive).
